Source: BindingDB's records for doi:10.1021/jm00160a049 (1986)

Target: T1, Renin (Homo sapiens, UniProt P00797)
T1 sequence (P00797 whole entry): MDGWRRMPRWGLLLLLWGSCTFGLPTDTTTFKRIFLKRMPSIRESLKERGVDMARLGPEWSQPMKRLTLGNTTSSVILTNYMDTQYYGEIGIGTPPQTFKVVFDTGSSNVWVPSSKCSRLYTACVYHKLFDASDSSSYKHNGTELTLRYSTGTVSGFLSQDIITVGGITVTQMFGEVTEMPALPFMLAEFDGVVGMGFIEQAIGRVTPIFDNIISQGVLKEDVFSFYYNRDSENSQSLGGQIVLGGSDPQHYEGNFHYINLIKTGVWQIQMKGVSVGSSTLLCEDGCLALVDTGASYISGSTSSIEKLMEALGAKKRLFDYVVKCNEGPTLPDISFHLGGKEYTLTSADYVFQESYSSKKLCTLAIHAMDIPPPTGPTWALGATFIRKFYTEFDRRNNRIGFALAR
Assay: ChEBML_195744
Source text: Inhibition of human plasma renin

## CC[C@H](C)[C@H](NC(=O)[C@@H](C[C@H](O)[C@H](CC(C)C)NC(=O)[C@H](Cc1c[nH]cn1)N(C)C(=O)[C@H](Cc1ccccc1)NC(=O)[C@@H]1CCCN1C(=O)OC(C)(C)C)C(C)C)C(=O)NCc1ccccn1 [2-(1-{[1-(2-Hydroxy-1-isobutyl-5-methyl-4-{2-methyl-1-[(pyridin-2-ylmethyl)-carbamoyl]-butylcarbamoyl}-hexylcarbamoyl)-2-(3H-imidazol-4-yl)-ethyl]-methyl-carbamoyl}-2-phenyl-ethylcarbamoyl)-pyrrolidine-1-carboxylic acid tert-butyl ester]
  IC50: 0.65 nM
